How the values were obtained:
[1] = test system: hPSC-derived MPPs differentiating into NGN3+ / CHGA+ endocrine progenitors; test: Endocrine specification of MPPs at stage 5, flow cytometry and qPCR; format: cell-based, human; settings: for CHGA+/NKX6-1+ endocrine progenitor cells by the end of stage 5: assayed at stage 5, day 7
Description: (§1) Differentiations into SC-β cells were performed following a protocol described in [3] and as follows: HUES8 or 1016 cells were seeded at 6×10^5 cells/mL in mTeSR1 media and […] Y27632 (Sigma-Aldrich). The media was changed 48 h later and the differentiations were started 72 h after the cells were seeded. The media changes were as follows:
(§2) Stage 5 EN: Days 14 and 16: S5+0.25 μM Sant1+100 nM RA+1 μM XXI (EMD Millipore)+10 μM Alk5i II (Axxora)+1 μM T3 (EMD Millipore)+20 ng/mL Betacellulin (Thermo Fisher Scientific). Days 18, 20: S5+25 nM RA+1 μM XXI+10 μM Alk5i II+1 μM T3+20 ng/mL Betacellulin.
(§3) Control and experimental samples were collected from differentiations performed in parallel with hPSC cells obtained from the same maintenance batch. Treatments with 0.35 μM verteporfin (Sigma-Aldrich), 10 μM roscovitine (Sellekchem), or DMSO (Sigma-Aldrich) were performed at the last stages of the differentiation including stage 4 (days 9-14), stage 5 (days 14-18), and stage 6 (day 18-25, first 7 days) in ultra-low attachment six-well plates (Corning).
(§4) Differentiated cell clusters were dispersed into a single-cell suspension with TrypLE (Life Technologies) at RT, fixed with 4% paraformaldehyde at 4° C., washed three times in PBS+0.2% bovine serum albumin (Millipore)+0.1% saponin (Sigma), blocked for 30 min at 4° C. in PBS+5% donkey serum+0.1% saponin, incubated with primary antibodies overnight at 4° C., washed, and incubated with secondary antibodies for 1 h at RT. Stained, fixed cells were filtered through a 40-μm nylon mesh into flow cytometry tubes (BD Falcon) and were analyzed for relevant stage-specific marker expression using LSR II flow cytometers (BD Biosciences) and FlowJo for the data analysis. Samples stained with secondary antibodies only were used to gate on cells that are negative and accurately identified cells expressing the markers included in the analysis. For shRNA-infected samples, only infected GFP+ cells were included in the analysis (approximately in 30-40% of all cells). To quantify incorporation of EdU and estimate levels of proliferation, cells pulsed with 10 μM EdU for 4 h were dissociated as described above unless stated otherwise. The Click-IT EdU flow cytometry kit (Invitrogen) was used to detect EdU incorporation following the manufacturer's protocol with minor modifications.
The total RNA was isolated using the Direct-ZOL Miniprep kit (Zymo Research), and RNA was stored at −80° C. in RNA storage solution (Invitrogen) until subsequent analysis. […] Gene expression levels were determined with NanoString nSolver software with default parameters and normalized with the expression of five housekeeping genes (ITCH, RPL15, RPL19, TCEB1, and UBE2D3). […]

[2] = test system: SC-β cell grafts; test: Mouse transplantation analysis of SC-β cell grafts under the kidney capsule; format: in vivo, immunodeficient SCID-beige mice
Description: Cell clusters were collected at the end of each of the differentiation stages and fixed with 4% paraformaldehyde for 1 h at RT, washed in 30% sucrose, embedded in OCT compound (Tissue-Tek) and sectioned for histological analysis. Clusters were blocked with PBS+ 0.1% Triton X-100 (VWR)+5% donkey serum (Jackson Immunoresearch) for 30 min at RT, incubated with primary antibodies overnight at 4° C., washed, and incubated with secondary antibodies for 1 h at RT. Stained clusters were washed and mounted in Flouromount-G (Invitrogen), covered with coverslips, and sealed with nail polish. Images were taken using a Zeis Axio Imager.Z2 and Apotome.2. Image analysis was performed with ImageJ. To estimate the relative proportion of cells in the graft, four tissue sections from different areas in the graft were imaged, and the relative proportions of relevant cell types were quantified as a percent of cells positive for the relevant marker of the total number DAPI nuclei. […]
Dissociated SC-β cells were transplanted into the kidney capsule of immunodeficient SCID-beige mice (Jackson Laboratory), aged 8-10 weeks. […] Wound clips were removed 10 days after surgery and mice were monitored twice a week.
Mice were then analyzed for graft function at various time points by performing in vivo [3]. […]

[3] = test system: stem cell-derived β cells (SC-β cells); test: SC-β cell differentiation assayed at end of stage 6 (stage 6, day 14), flow cytometry; format: cell-based, human
Description: as §1, §2
Stage 6 (3: Days 21-35 (change every other day): S3 media. In the final stage, cells were analyzed between 28 and 35 days of the protocol.
as §3
For infection, cell clusters collected from spinner flask suspension cultures were dissociated in Accutase (StemCell Technologies) for 10 min, followed by mechanical dissociation and centrifugation at 230 g for 5 min at room temperature (RT). Cell pellets were resuspended at a density of 2.5 million cells/mL in the stage-matched medium with polybrene reagent (Santa Cruz) at 8 μg/mL. Single-cell suspensions were combined with concentrated lentiviral particles and plated on ultra-low attachment six-well plates on a rocker plate set at 70 rpm in a 37° C. incubator, 5% CO2, and 100% humidity. Feeding schedule was followed depending on the stage of differentiation as described above.
as §4

[4] = test system: hPSC-derived multipotent pancreatic progenitors (MPPs); format: cell-based, human; settings: 0.35 μM verteporfin during stage 4, vs DMSO
Description: as §1
Control and experimental samples were collected from differentiations performed in parallel with hPSC cells obtained from the same maintenance batch. […]
as §4, with “Samples stained with secondary antibodies only were used to gate on cells that are negative and accurately identified cells expressing the markers included in the analysis. For shRNA-infected samples, only infected GFP+ cells were included in the analysis (approximately in 30-40% of all cells).” left out, “The Click-IT EdU flow cytometry kit (Invitrogen) was used to detect EdU incorporation following the manufacturer's protocol with minor modifications.” left out

[5] = test system: SC-β cells; test: Glucose-stimulated insulin secretion (GSIS) in vitro; format: cell-based, human
Description: Approximately 1×10^6 SC-β cells in clusters were washed with Krebs buffer and incubated in low (2.8 mM) glucose Krebs in cell culture inserts (Millicell) to starve cells and remove residual insulin at 37° C. for 1 h. Clusters were washed and incubated in low glucose Krebs for 1 h and the supernantant was collected. They were then transferred to high (20 mM) glucose, incubated for 1 h and the supernatant was collected. For sequential GSIS challenges, this sequence of low- and high-glucose stimulations was repeated twice. At the end, clusters were incubated in 2.8 mM glucose+30 mM KCl Krebs (depolarization challenge) for 1 h and the supernatant was collected. Clusters were dispersed into single cells using TrypLE and cell number was estimated by a Vi-Cell counter (Beckman Coulter). Insulin concentration was determined for supernatant samples using the Human Ultrasensitive Insulin ELISA (ALPCO Diagnostics). Protein extraction was performed with the M-PER extraction reagent (Thermo Scientific), and insulin content was measured for each sample using the human Ultrasensitive Insulin ELISA kit. Insulin secretion levels were normalized to total insulin content for each sample. Stimulation indexes were calculated as a ratio of insulin secretion at high glucose (20 mM) relative to the basal secretion (2.8 mM glucose).

| Molecule | differentiation of MPPs into NGN3+ endocrine progenitors (in words) ([1]; 10 μM roscovitine at stage 5, stage 5, day 4, compared with the verteporfin effect) | CHGA+/NKX6-1+ endocrine progenitor cells by the end of stage 5 ([1]; treatment during stage 5) | proportion of NGN3+ endocrine progenitors ([1]; treatment during stage 5, assayed at stage 5, day 4, DMSO control 6.4±0.52%) | proportion of SOX9+ cells in the grafts ([2]; cells differentiated in the presence of verteporfin, 12-week post transplantation, SOX9+ of DAPI+, control grafts ~17%) | in vivo glucose-stimulated human insulin secretion ([2]; grafts of cells differentiated in the presence of verteporfin, serum human insulin before and 30 min after glucose injection, 8 weeks post transplantation) | proportion of C-peptide+/NKX6.1+ β cells ([3]; 0.35 μM verteporfin, end of stage 6, control 27.5±4.2%) | glucagon+/C-peptide- alpha cells ([3]; 0.35 μM verteporfin, end of stage 6, vs control) | effect on SC-endocrine and β-cell differentiation in other hPSC cell lines ([3]; 1016 and 13B iPSC lines, C-peptide/NKX6.1 and CHGA/NKX6.1 at stage 6 day 14) | proportion of SOX9+ ductal-like progenitor cells ([3]; treatment during endocrine and β-cell differentiation stages, end of stage 6, vs control) | proportion of Ki67+ proliferating cells ([3]; verteporfin during endocrine and β-cell differentiation stages, end of stage 6, vs control) | impaired endocrine differentiation upon YAPS6A overexpression ([3]; verteporfin treatment of YAPS6A-overexpressing cells, C-peptide/NKX6.1 at stage 6 day 14) | proportion of MPPs coexpressing the proliferation marker Ki67 ([4]; PDX1/Ki67 at end of stage 4) | number of NKX6.1+ progenitors compared with control differentiations ([4]; PDX1/NKX6.1 co-positive cells at end of stage 4) | levels of insulin secretion per total insulin content at 2.8 mM glucose, 20 mM glucose, and 30 mM KCl ([5]; SC-β cells differentiated with verteporfin vs DMSO control) | insulin secretion at high glucose over low glucose in sequential glucose stimulations ([5]; verteporfin during stages 5 and 6, 20 mM vs 2.8 mM glucose) | stimulation indexes (insulin secretion at 20 mM relative to 2.8 mM glucose) ([5]; verteporfin-treated vs control endocrine cells) |
| --- | --- | --- | --- | --- | --- | --- | --- | --- | --- | --- | --- | --- | --- | --- | --- | --- |
| CC[C@H](CO)Nc1nc(NCc2ccccc2)c2ncn(C(C)C)c2n1 [roscovitine] | did not have the same effect | not observed |  |  |  |  |  |  |  |  |  |  |  |  |  |  |
| verteporfin |  | increase | 12.1±2% | 3.1% | robust | 38.6±3.9% | modest but significant increase | robust and independent of the genetic background | decrease | decrease | rescued | twofold decrease | significant decrease | significantly higher | increase in insulin secretion at high glucose over low glucose | no statistically significant differences |
